Reference: patent US20120321621A1, “INHIBITION OF FcyR-MEDIATED PHAGOCYTOSIS WITH REDUCED IMMUNOGLOBULIN PREPARATIONS” (priority 2008, published 2012)

Key:
[1] = test system: FcγR-mediated phagocytosis of anti-D-sensitized R2R2 RBCs by monocyte-macrophages; experiment: Monocyte monolayer assay (MMA): inhibition of phagocytosis of anti-D-sensitized R2R2 RBCs; format: cell-based, human; settings: for inhibition of phagocytosis by chemical alone after dialysis: after extensive dialysis
Description: Residual and phagocytosed RBCs were distinguished by relative differences in refracted light under phase-contrast microscopy.

[2] = test system: FcγR-mediated phagocytosis of anti-D-sensitized R2R2 RBCs by monocyte-macrophages; settings: 10^−4M, MMA (Rampersad et al.); cited from earlier work

Row | Compound | inhibition at 10000 µM ([1]; Homo sapiens, Monocyte, free, undialyzed, 10^−2M, read-out: inhibition of phagocytosis by free chemical) | inhibition of phagocytosis by chemical alone after dialysis [1] | inhibition of FcγR-mediated phagocytosis by chemical alone [2] | inhibition of phagocytosis by undialyzed chemical alone ([1]; undialyzed, 10^−5 or 10^−3 mol per L)
1 | O[C@H](CS)[C@H](O)CS (racemic) [DTT, Dithiothreitol] | ~30% | no inhibition |  | 
2 | Cc1ccc(S(=O)(=O)CS)cc1 [p-toluenesulfonylmethyl mercaptan] |  | not able to inhibit phagocytosis | approximately 70% | 
3 | C[CH2][Hg][S]c1ccccc1C(=O)[O-].[Na+] [thimerosal] |  | no longer inhibits phagocytosis |  | 100%
